Data reported in a melting point compilation (Tetko et al.).

Row | SMILES | melting point
1 | CCCc1nc(N)sc1CC | 53 to 55 °C
2 | N#Cc1cc(C(F)(F)F)ccc1C(=O)O | 113 to 115 °C
3 | BrCc1cn(-c2ccccc2)nn1 | 111 to 113 °C
4 | CC(=O)Nc1cccc(NC(=O)C(Br)C(C)C)c1 (configuration not stated) | 179 to 181 °C
5 | CCOC(=O)N1CCNC(=O)CC1 | 103 to 105 °C
6 | Cc1cc(C(=O)CCl)c(C)n1-c1ccc(Br)cc1 | 82 to 84 °C
7 | CCN(CC)C(=O)Cc1ccc(N)cc1 | 87 to 89 °C
8 | CC(C)(C)C(=O)Nc1ccc(F)c(C(=O)O)c1 | 179 to 181 °C
9 | Nc1cc(Cl)cc(C(=O)O)c1F | 196 to 198 °C
10 | COC1(OC)CC(CO)(CO)C1 | 48 to 50 °C
11 | CCCCn1nnnc1CCl | < 17 °C
12 | Cc1nn(C2CCCCC2)c(C)c1N | 69 to 71 °C
13 | Nc1ccc(S(=O)(=O)C(F)(F)F)cc1N | 109 to 111 °C
14 | CC(=O)c1ccc(-c2ccc(C(F)(F)F)cc2)s1 | 127 to 129 °C
15 | O=c1[nH]nc(-c2ccco2)o1 | 111 to 113 °C
16 | Cc1c(S(=O)(=O)Cl)cnn1-c1ccccn1 | 53 to 55 °C
17 | CC(Cl)c1nc(-c2nnc[nH]2)no1 (configuration not stated) | 187 to 189 °C
18 | C#Cc1cccc(NCC(=O)NC)c1 | 127 to 129 °C
19 | O=[N+]([O-])c1cc(S(=O)(=O)N2CCCCC2)ccc1Cl | 61 to 63 °C
20 | Cc1nc2c(c(C)nn2C)c(C)c1CC(=O)O | 245 to 247 °C
21 | Cc1cc(C(=O)CCl)c(C)cc1Br | 79 to 81 °C
22 | Cc1ccc2[nH]c(C(=O)O)c(Cl)c2c1 | 191 to 193 °C
23 | O=C(CCl)NC1CCCCCCC1 | 82 to 84 °C
24 | O=C(O)Cc1ccc(-n2cnnn2)cc1 | 171 to 173 °C
25 | Clc1ncncc1I | 54 to 56 °C
26 | CNC(C(=O)O)c1ccc(F)cc1 (configuration not stated) | 276 to 278 °C

Row | SMILES | melting point
27 | c1ccc(-c2cncc(-c3ccccc3)n2)cc1 | 86 to 88 °C
28 | Cn1ncc(C(=O)O)c1N | 139 to 141 °C
29 | CC1(c2cccc(C#N)c2)NC(=O)NC1=O (configuration not stated) | 202 to 204 °C
30 | O=C(O)C(Oc1ccc(F)cc1Br)c1ccccc1 (configuration not stated) | 133 to 135 °C
31 | Nc1cccc(CS(=O)C2CCCCC2)c1 (configuration not stated) | 88 to 90 °C
32 | O=C(O)c1cc(-c2ccc(Cl)cc2)on1 | 185 to 187 °C
33 | CC(C)N1C2CCCC1CC(O)C2 (configuration not stated) | 59 to 61 °C
34 | CC(=O)c1ccc(OCc2nccn2C)cc1 | 106 to 108 °C
35 | COCc1ccc(CNC(=O)CCl)cc1 | 83 to 85 °C
36 | CCCOc1c(Cl)cc(C#N)cc1OC | 31 to 33 °C
37 | O=C(O)C1CC1c1ccccc1OC(F)(F)F (configuration not stated) | 94 to 96 °C
38 | O=C(c1cccnc1Cl)N1CCCC1 | 77 to 79 °C
39 | Nc1ccc(S(=O)(=O)C(F)(F)F)cc1 | 94 to 96 °C
40 | COC(=O)c1ccc2c(=O)[nH]c(C)nc2c1 | 274 to 276 °C
41 | Nc1cc(Cl)c(-c2cc(Cl)c(N)cc2Cl)cc1Cl | 135 to 140 °C
42 | O=[N+]([O-])c1ccccc1C(O)c1cccnc1 (configuration not stated) | 102 to 104 °C
43 | N#CCCCN1CCOCC1 | 67 to 69 °C
44 | Cc1ccc(C)c(-n2ccnc2S)c1 | 192 to 194 °C
45 | Cc1nn(C)c(C)c1CC(=O)N1CCC(C(=O)O)CC1 | 167 to 169 °C
46 | O=C(O)C1CCN(S(=O)(=O)c2cccc(C(F)(F)F)c2)CC1 | 135 to 136 °C
47 | CSCC[C@H](N)C(=O)NO | 148 to 150 °C
48 | O=C(O)Cc1csc(-c2ccc3c(c2)OCO3)n1 | 175 to 177 °C
49 | Cc1ccc(OCc2nc(C=O)cs2)cc1 | 86 to 88 °C
50 | O=C(CCl)Nc1ccc2c(c1)CCC2 | 112 to 114 °C
51 | O=C(O)CCc1nnc(-c2ccsc2)o1 | 159 to 161 °C
52 | O=C1CN(/C=C/c2ccccc2)C(=O)N1 | 224 to 226 °C

Row | SMILES | melting point
53 | O=C(CCl)N1c2ccccc2CCc2ccccc21 | 96 to 98 °C
54 | O=C(CCl)Nc1ccc(N2CCc3ccccc32)cc1 | 167 to 169 °C
55 | O=C1CCCCN1c1ccc(Br)cc1F | 96 to 98 °C
56 | CC1CN(c2ccccc2N)CC(C)O1 (configuration not stated) | 83 to 85 °C
57 | CS(=O)(=O)CCc1ccc(N)cc1 | 93 to 95 °C
58 | CCOC(=O)c1sc2nc(Cc3ccccn3)[nH]c(=O)c2c1C | 231 to 233 °C
59 | Nc1nnc(Cl)s1 | 179 to 181 °C
60 | CS(=O)(=O)c1ccc2c(c1)NCCO2 | 117 to 119 °C
61 | O=C(O)C=Cc1ccccc1OCc1cccc(Br)c1 | 148 to 150 °C
62 | O=Cc1c(OCC(=O)O)ccc2ccccc12 | 174 to 176 °C
63 | O=C(O)c1cccc(-n2cnnn2)c1 | 168 to 170 °C
64 | Cc1nc(-c2cnn(C)c2)sc1C(=O)O | 230 to 232 °C
65 | O=C(O)C#Cc1ccc2c(c1)OCO2 | 165 to 167 °C
66 | Cc1ncc([N+](=O)[O-])cc1C(=O)O | 210 to 214 °C
67 | Cc1ccccc1NC(=O)CCl | 75 to 77 °C
68 | COc1cccc(NC(=O)C=CC(=O)O)c1 | 151 to 153 °C
69 | Cc1ccc(NC(=O)CCl)cc1Cl | 73 to 75 °C
70 | CC(NS(=O)(=O)Cc1ccc(CN)cc1)C(N)=O (configuration not stated) | 140 to 142 °C
71 | O=c1[nH]c(-c2cccs2)no1 | 183 to 185 °C
72 | CC(=NO)c1ccc(OCc2ccccc2C)cc1 | 153 to 155 °C
73 | Cc1cc(Br)cc(Cl)c1OCC(=O)O | 197 to 199 °C
74 | Nc1nccnc1Br | 129 to 131 °C
75 | O=C(CCl)c1ccc(NC(=O)c2ccccc2)cc1 | 140 to 142 °C
76 | O=C(NCC(F)(F)F)c1ccc(Br)cc1 | 119 to 121 °C
77 | C=CC(=O)NC(=O)Nc1ccccc1 | 149 to 151 °C
78 | O=C(O)CSc1nncn1C1CC1 | 203 to 205 °C

Row | SMILES | melting point
79 | CS(=O)(=O)c1ccc(N)cc1Cl | 193 to 195 °C
80 | CCCCN1C(=O)CCC(C(=O)O)C1c1ccccc1OC (configuration not stated) | 288 to 290 °C
81 | O=C(O)c1ccc(S(=O)(=O)Cl)cc1Br | 204 to 206 °C
82 | NC(=O)c1cc(-c2ccccc2)sc1N | 200 to 210 °C
83 | COc1ccc(C=O)cc1OCc1ccc([N+](=O)[O-])cc1 | 109 to 111 °C
84 | CCN1CCc2nc(N)sc2C1 | 71 to 80 °C
85 | O=C1CCCc2c1[nH]c1ccccc21 | 169 to 171 °C
86 | ClCc1nnc(-c2ccc(Br)s2)o1 | 109 to 111 °C
87 | NC(=NO)c1ccc([N+](=O)[O-])cc1 | 187 to 189 °C
88 | O=Cc1cn(-c2ccc(Cl)c(Cl)c2)nn1 | 175 to 177 °C
89 | CC(=O)NC(CC(=O)O)c1ccc(F)cc1F (configuration not stated) | 149 to 151 °C
90 | Nc1cccc(NC(=O)c2cccc(C(F)(F)F)c2)c1 | 134 to 136 °C
91 | CC(C)(C)c1nc2cc(N)ccc2o1 | 111 to 113 °C
92 | NCc1ccc(NC(=O)c2cccnc2)cc1 | 137 to 139 °C
93 | CCCCC(NC(N)=O)C(=O)O (configuration not stated) | 166 to 168 °C
94 | Cn1c(S)nc2sccc2c1=O | 317 to 319 °C
95 | OC1CNc2c(ccc3ccccc23)C1 (configuration not stated) | 144 to 146 °C
96 | Cc1ccc(-n2nc(-c3ccccc3)cc2N)c(C)c1 | 126 to 128 °C
97 | Cn1cc(/C=C/C(=O)O)c(=O)n(C)c1=O | 272 to 274 °C
98 | Nc1ccc(-n2ccnn2)cc1 | 137 to 139 °C
99 | CCc1ccc(NC(=O)c2nnc(CCl)s2)cc1 | 126 to 128 °C
100 | O=C(NCc1cccs1)c1ccc(-n2ccnc2S)cc1 | 195 to 197 °C
101 | O=C(CCl)NC1CS(=O)(=O)CC1Cl (configuration not stated) | 181 to 190 °C
102 | Nn1c(S)nnc1-c1ccc(Cl)cc1Cl | 90 to 92 °C
